Test results from patent US11591323B2, “Muscarinic agonists as non-steroidal and non-opioid analgesics and methods of use thereof” (Barry University, priority 2019, dated 2023).
Like-named read-outs stand apart in the source and are kept apart here.

What was measured:
Set-up in all cases: host or cells: CHO cells, stably transfected
[1] = target: T1, M1 muscarinic receptor (Homo sapiens, UniProt P11229); test: [3H]NMS competition binding, M1 CHO membranes; details: competition with 1 nM [3H]NMS; read-out: Inhibition constants (Ki) as negative logarithms, M1 (converted)
T1 sequence (P11229 1-460): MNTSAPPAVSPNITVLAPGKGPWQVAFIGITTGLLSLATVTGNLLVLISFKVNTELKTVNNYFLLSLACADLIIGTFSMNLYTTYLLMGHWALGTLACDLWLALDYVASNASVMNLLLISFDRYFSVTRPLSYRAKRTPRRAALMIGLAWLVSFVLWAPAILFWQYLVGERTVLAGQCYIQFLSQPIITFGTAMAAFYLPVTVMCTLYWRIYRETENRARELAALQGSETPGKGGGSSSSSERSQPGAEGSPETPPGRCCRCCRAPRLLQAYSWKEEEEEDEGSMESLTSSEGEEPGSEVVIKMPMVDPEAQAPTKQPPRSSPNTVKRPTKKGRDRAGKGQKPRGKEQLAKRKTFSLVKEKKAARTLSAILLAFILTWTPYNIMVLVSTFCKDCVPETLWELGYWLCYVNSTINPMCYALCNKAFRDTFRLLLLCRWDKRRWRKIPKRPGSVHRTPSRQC

[2] = target: T2, M3 muscarinic receptor (Homo sapiens, UniProt P20309); test: [3H]NMS competition binding, M3 CHO membranes; details: competition with 1 nM [3H]NMS; read-out: Inhibition constants (Ki) as negative logarithms, M3 (converted)
[3] = target: T3, M4 muscarinic receptor (Homo sapiens, UniProt P08173); test: [3H]NMS competition binding, M4 CHO membranes
T3 sequence (P08173 1-479): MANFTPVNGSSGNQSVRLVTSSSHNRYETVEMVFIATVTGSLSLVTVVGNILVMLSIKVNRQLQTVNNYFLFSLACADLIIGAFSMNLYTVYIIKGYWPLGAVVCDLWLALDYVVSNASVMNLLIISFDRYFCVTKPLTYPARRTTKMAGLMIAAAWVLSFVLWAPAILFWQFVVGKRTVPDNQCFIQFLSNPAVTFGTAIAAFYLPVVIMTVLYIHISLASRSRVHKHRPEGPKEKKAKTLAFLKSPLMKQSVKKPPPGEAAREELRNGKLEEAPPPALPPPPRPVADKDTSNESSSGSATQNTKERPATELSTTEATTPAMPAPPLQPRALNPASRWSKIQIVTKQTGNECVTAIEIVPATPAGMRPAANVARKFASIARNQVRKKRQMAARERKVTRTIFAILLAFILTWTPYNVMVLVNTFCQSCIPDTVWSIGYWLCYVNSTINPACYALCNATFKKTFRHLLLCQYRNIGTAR

[4] = target: T4, M5 muscarinic receptor (Homo sapiens, UniProt P08912); test: [3H]NMS competition binding, M5 CHO membranes; details: competition with 1 nM [3H]NMS; read-out: Inhibition constants (Ki) as negative logarithms, M5 (converted)
T4 sequence (P08912 1-532): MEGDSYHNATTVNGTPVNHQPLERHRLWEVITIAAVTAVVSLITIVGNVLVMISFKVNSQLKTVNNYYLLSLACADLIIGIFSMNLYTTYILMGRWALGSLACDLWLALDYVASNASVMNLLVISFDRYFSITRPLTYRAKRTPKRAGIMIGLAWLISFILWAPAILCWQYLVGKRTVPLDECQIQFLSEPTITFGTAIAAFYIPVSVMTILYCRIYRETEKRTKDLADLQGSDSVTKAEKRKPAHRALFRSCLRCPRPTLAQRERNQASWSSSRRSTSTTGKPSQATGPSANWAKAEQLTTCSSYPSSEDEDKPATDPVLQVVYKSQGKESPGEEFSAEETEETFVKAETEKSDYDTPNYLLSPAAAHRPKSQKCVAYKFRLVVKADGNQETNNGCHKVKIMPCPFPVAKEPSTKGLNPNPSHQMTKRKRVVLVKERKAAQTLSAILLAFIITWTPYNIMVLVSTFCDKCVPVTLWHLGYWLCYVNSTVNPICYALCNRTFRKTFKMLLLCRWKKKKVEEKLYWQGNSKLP

[5] = target: T1, M1 muscarinic receptor; test: accumulation of inositol phosphates IPX, M1 CHO cells (M1Gq); type: cell-based; details: for Kd: operational model, read-out: pKA (converted); for EC50: read-out: pEC50 (converted)
[6] = target: T5, M2 muscarinic receptor (Homo sapiens, UniProt P08172); test: inhibition of forskolin-stimulated cAMP, M2 CHO cells (M2Gi); type: cell-based; details: for Emax: CHO, read-out: E′MAX; for Kd: operational model, read-out: pKA (converted); for EC50: read-out: pEC50 (converted)
T5 sequence (P08172 1-466): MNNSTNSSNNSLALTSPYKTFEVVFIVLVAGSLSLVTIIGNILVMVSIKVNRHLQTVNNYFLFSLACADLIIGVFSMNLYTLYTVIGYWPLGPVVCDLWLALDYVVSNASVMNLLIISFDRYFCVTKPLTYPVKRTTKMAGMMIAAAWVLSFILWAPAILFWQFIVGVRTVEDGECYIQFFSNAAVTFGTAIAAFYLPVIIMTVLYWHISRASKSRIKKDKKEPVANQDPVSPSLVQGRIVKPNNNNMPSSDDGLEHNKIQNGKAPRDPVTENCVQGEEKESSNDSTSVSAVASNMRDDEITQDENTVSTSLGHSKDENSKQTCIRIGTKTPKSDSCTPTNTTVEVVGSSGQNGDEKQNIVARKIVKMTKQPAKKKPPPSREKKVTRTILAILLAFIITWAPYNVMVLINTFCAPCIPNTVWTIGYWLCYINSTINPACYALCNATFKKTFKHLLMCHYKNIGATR

[7] = target: T2, M3 muscarinic receptor; test: accumulation of IPX, M3 CHO cells (M3Gq); type: cell-based; details: for Kd: read-out: pKA (converted); for EC50: read-out: pEC50 (converted)
[8] = M1 (↑IPX), preferential response, Table 7
[9] = M1 (↑IPX), preferential response, Table 7, operational efficacy
[10] = M1 (↑IPX), preferential response, relative to carbachol, Tables 2, 3, 7
[11] = M1 (↑IPX), preferential response, to carbachol, Tables 2, 3, 7
[12] = M2 (↓cAMP), preferential response, Table 7
[13] = M2 (↓cAMP), preferential response, Table 7, operational efficacy
[14] = M2Gi (↓cAMP), Table 8, to carbachol
[15] = M3 (↑IPX), preferential response, Table 7
[16] = M3 (↑IPX), preferential response, Table 7, operational efficacy
[17] = M3 (↑IPX), preferential response, Table 7, operational model
[18] = M3 (↑IPX), preferential response, relative to carbachol, Tables 2, 3, 7
[19] = M3 (↑IPX), preferential response, to carbachol, Tables 2, 3, 7
[20] = competition with 1 nM [3H]NMS, read-out: Inhibition constants (Ki) as negative logarithms, M4 (converted)
[21] = M2 (↓cAMP), preferential response, relative to carbachol, Tables 2, 3, 7
[22] = M2 (↓cAMP), preferential response, to carbachol, Tables 2, 3, 7

T2 sequence (P20309 whole entry): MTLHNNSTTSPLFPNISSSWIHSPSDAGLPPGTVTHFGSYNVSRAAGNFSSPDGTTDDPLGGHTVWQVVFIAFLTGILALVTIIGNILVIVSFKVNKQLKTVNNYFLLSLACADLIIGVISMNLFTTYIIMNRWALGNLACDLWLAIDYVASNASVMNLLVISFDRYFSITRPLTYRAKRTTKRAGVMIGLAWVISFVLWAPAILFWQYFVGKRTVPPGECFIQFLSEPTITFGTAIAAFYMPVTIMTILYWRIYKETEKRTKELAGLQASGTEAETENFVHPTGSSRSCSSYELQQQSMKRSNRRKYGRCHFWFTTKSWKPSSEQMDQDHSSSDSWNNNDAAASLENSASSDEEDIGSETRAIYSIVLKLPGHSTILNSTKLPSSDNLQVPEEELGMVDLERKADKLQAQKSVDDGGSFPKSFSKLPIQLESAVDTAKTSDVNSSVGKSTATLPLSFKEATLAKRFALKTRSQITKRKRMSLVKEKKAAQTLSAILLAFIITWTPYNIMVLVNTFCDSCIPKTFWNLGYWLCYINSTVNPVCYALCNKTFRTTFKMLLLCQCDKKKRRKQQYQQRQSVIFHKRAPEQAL

Compound | Ki [1] [µM] | Ki [2] [µM] | Ki [4] [µM] | E′MAX [5, 8] [fold over basal] | τ [5, 9] | Kd [5, 8] [µM] | EC50 [5, 8] [µM] | RAi [5, 10] | Δlog(τ/KA) [5, 11] | Emax [6, 12] [%] | τ [6, 13] | Kd [6, 12] [µM] | EC50 [6, 12] [µM] | E′MAX [7, 15] [fold over basal] | τ [7, 16] | Kd [7, 17] [µM] | EC50 [7, 15] [µM] | RAi [7, 18] | Δlog(τ/KA) [7, 19] | Δlog(τ/KA) [6, 22] | other results
C1=CCN(Cc2cccs2)CC1.Cl [Compound 6A, 1-[(thiophen-2-yl)methyl]-1,2,3,6-tetrahydropyridin-1-ium chloride] | 44.7 | 37.2 | 50.1 | 2.0 ± 0.2 | 0.03 ± 0.01 | 7.94 | 7.94 | 0.0010 ± 0.0001 | 2.98 ± 0.26 | 50 ± 2 | 1.32 ± 0.08 | 1.58 | 0.724 | 2.5 ± 0.2 | 0.06 ± 0.01 | 5.01 | 5.01 | 0.0058 ± 0.0005 | 2.23 ± 0.23 |  | Ki ([3]; at M4 receptors, read-out: Inhibition constants Ki): 54 µM; E′MAX ([5]; M1Gq (↑IPX), Table 8): 2.0 ± 0.2 fold increase; pEC50 ([5]; M1Gq (↑IPX), Table 8): 5.1 ± 0.1; pKA ([5]; M1Gq (↑IPX), Table 8): 5.1 ± 0.2; τ ([5]; M1Gq (↑IPX), Table 8): 0.03 ± 0.01; RAi ([5]; M1Gq (↑IPX), Table 8, relative to carbachol): 0.0011 ± 0.0007; Δlog(τ/KA) ([5]; M1Gq (↑IPX), Table 8, to carbachol): 2.96 ± 0.86; E′MAX ([6]; M2Gi (↓cAMP), Table 8): 50 ± 2 % inhibition; pEC50 ([6]; M2Gi (↓cAMP), Table 8): 6.14 ± 0.05; pKA ([6]; M2Gi (↓cAMP), Table 8): 5.8 ± 0.1; τ ([6]; M2Gi (↓cAMP), Table 8): 1.3 ± 0.1; RAi ([6]; M2Gi (↓cAMP), Table 8, relative to carbachol): 0.067 ± 0.007; Δlog(τ/KA) [6, 14]: 1.22 ± 0.08; E′MAX ([7]; M3Gq (↑IPX), Table 8): 2.4 ± 0.2 fold over basal; τ ([7]; M3Gq (↑IPX), Table 8): 0.05 ± 0.01; RAi ([7]; M3Gq (↑IPX), Table 8, relative to carbachol): 0.0056 ± 0.0008; Δlog(τ/KA) ([7]; M3Gq (↑IPX), Table 8, to carbachol): 2.26 ± 0.48; EC50 ([7]; M3Gq (↑IPX), Table 8): 5.01 µM; Kd ([7]; M3Gq (↑IPX), Table 8): 5.01 µM
Cc1ccc(CN2CC=CCC2)s1.Cl [Compound 6B, 1-[(5-methylthiophen-2-yl)methyl]-1,2,3,6-tetrahydropyridin-1-ium chloride] | 25.1 | 22.9 | 24 | 2.0 ± 0.2 | 0.03 ± 0.01 | 15.8 | 15.8 | 0.0005 ± 0.0001 | 3.28 ± 0.38 | 47 ± 2 | 1.15 ± 0.08 | 20 | 9.12 | 2.0 ± 0.2 | 0.04 ± 0.01 | 15.8 | 31.6 | 0.0006 ± 0.0001 | 3.24 ± 0.34 | 2.35 ± 0.16 | Ki [3, 20]: 28.8 µM; binding that occurred with high affinity ([3]; fraction of binding to M4): ~10%; Ki ([3]; high-affinity fraction of binding to M4, read-out: high affinity binding): ~0.03 µM; Ki ([3]; high-affinity fraction, M4, read-out: pKI of high affinity binding (converted)): 0.02 µM; RAi [6, 21]: 0.0047 ± 0.0004
Brc1ccc(CN2CC=CCC2)s1.Cl [Compound 6C, 1-[(5-bromothiophen-2-yl)methyl]-1,2,3,6-tetrahydropyridin-1-ium chloride] | 7.59 | 14.1 | 12.9 | 2.1 ± 0.2 | 0.03 ± 0.01 | 3.98 | 3.47 | 0.0024 ± 0.0002 | 2.62 ± 0.36 | 24 ± 1 | 0.38 ± 0.04 | 3.16 | 2.19 | 1.8 ± 0.1 | 0.03 ± 0.01 | 3.98 | 5.01 | 0.0029 ± 0.0004 | 2.53 ± 0.33 | 2.02 ± 0.22 | Ki [3, 20]: 12.6 µM; RAi [6, 21]: 0.0070 ± 0.0006
C[N+](C)(C)CCOC(N)=O [carbachol, reference compound] |  |  |  |  |  |  |  |  |  |  |  |  |  |  |  |  |  |  |  | 0 | E′MAX [6, 12]: 44 ± 1 % inhibition; E′MAX ([6]; M2Gi (↓cAMP), Table 8): 44 ± 1 % inhibition; Δlog(τ/KA) [6, 14]: 0
